The test system of one data set is T-cells. Set-up: method as in PMID 12932045, PMID 16967053. The settings on record: compared with cADPR; cited from earlier work.
The target of data set [1] is T1, CD38 (Homo sapiens, UniProt P28907).
T1 construct: incubating 1 mM cADPR with 2 mg/mL of CD38 for 10 min
T1 sequence (P28907 1-300): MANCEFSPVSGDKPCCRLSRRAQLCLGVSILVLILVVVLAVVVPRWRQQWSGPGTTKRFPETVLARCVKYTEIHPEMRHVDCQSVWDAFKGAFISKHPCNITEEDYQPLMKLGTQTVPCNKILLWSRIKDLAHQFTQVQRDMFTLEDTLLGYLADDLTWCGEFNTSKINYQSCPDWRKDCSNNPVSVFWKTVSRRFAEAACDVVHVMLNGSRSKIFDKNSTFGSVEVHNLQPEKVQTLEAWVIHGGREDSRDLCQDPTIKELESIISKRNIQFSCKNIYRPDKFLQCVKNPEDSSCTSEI
The settings on record: N1-IMP fragments and 8-NH2-N1-cIDPR from earlier work; read-out: IC50, inhibition of CD38-catalyzed cADPR hydrolysis; cited from earlier work.

In data set [2] the target is T2, shCD38 (CD38 catalytic domain) (Homo sapiens, UniProt P28907).
T2 construct: high concentrations of CD38 catalytic domain (shCD38) present in crystallography media
T2 sequence (P28907 43-300 limits assumed): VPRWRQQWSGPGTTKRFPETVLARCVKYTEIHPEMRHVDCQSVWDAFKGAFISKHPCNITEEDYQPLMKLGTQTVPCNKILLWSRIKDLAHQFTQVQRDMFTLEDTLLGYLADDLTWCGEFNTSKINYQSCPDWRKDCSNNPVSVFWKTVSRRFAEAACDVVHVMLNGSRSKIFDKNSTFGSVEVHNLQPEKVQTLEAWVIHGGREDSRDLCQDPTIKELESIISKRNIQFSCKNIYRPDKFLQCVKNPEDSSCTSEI
Description: Ligand hydrolysis by high concentrations of shCD38, monitored by RP-HPLC. The format is biochemical. The settings on record: 1 mM ligand, 4 mg/mL shCD38. As for the experimental part: Indeed, 8-NH2-N9-butyl-cIDPR (6, Figure 2) was captured as the hydrolyzed product in the crystal structure with shCD38. […] Incubation of 11, 8-NH2-N1-IMP (1 mM final concentration) with 4 mg/mL shCD38 was monitored using RP-HPLC. The peak corresponding to 8-NH2-N1-IMP (RT = 10.5 min) reduced in intensity over time, alongside the appearance of a new peak (RT = 2.0 min) that was characteristic of an 8-amino substituted hypoxanthine analog (See Supplementary Information, Figure S1).
HPLC studies were carried out as previously described.[36] Briefly, the solution containing shCD38 was adjusted to the desired concentration using Tris-HCl buffer (20 mM, pH 8) and 50 μL was added to the inhibitor (0.05 μmole) in an Eppendorf tube at room temperature. At a given time point, a sample of 5 μL was removed and diluted with 95 μL MilliQ water. 10 μL Of this sample was injected directly into the analytical HPLC system (see General Experimental), eluting at 1 mL/min with an isocratic ion-pair buffer: 0.17% (m/v) cetrimide and 45% (v/v) phosphate buffer (pH 6.4) in MeOH.

Data set [3] addresses T1, CD38. Nature of the data set: Inhibition of CD38-catalyzed cADPR hydrolysis (fluorimetric cycling assay). The settings on record: for inhibitory activity (IC50) of CD38-mediated cADPR hydrolysis / IC50: 1 mM cADPR, 2 mg/mL CD38, 10 min, pH 4.5, IC50 values >1000 μM are approximate; for IC50: read-out: inhibitory activity (IC50) of CD38-mediated cADPR hydrolysis. The format is biochemical. Here is the method: The inhibition of cADPR hydrolysis by various concentrations of inhibitor (0–1 mM) was determined by incubating 1 mM cADPR with 2 mg/mL of CD38 for 10 min at 20–24uC in 25 mM sodium acetate, pH 4.5. The reaction was stopped by the addition of 150 mM HCl. The precipitated protein was filtered, and the pH was neutralized with Tris base. After diluting the mixture 20-fold, the concentration of the unhydrolyzed cADPR present in the diluted reaction mixture was assayed by the fluorimetric cycling assay as previously described.[46]

Data set [4] is described as follows: Solubility in the assay medium. The format is physicochemical. The settings on record: CD38 assay medium.

This is an account of results in article PMC8658804, “Small Molecule CD38 Inhibitors: Synthesis of 8-Amino-N1-Inosine 5′-Monophosphate, Analogues and Early Structure-Activity Relationship” (Molecules (Basel, Switzerland), 2021).

SMILES strings stand for the structures. “Also recorded” adds a separate entry of the source. Read-outs that look alike come from different tables or passages of the source.

`O=c1c2ncn3c2ncn1[C@@H]1O[C@H](COP(=O)(O)OP(=O)(O)OC[C@H]2O[C@@H]3[C@H](O)[C@@H]2O)[C@@H](O)[C@H]1O` [Compound 2, cyclic inosine 5′-diphosphoribose]: in the data set with T-cells, the “Ca2+ release” value is listed as “almost indistinguishably to that induced by cADPR”. Regarding `Nc1nc2c(=O)n3cnc2n1[C@@H]1O[C@H](COP(=O)(O)OP(=O)(O)OC[C@H]2O[C@@H]3[C@H](O)[C@@H]2O)[C@@H](O)[C@H]1O` [Compound 4, 8-NH2-N1-cIDPR, reference compound], the IC50 on CD38 [1] was 56 µM. With `O=c1c2nc[nH]c2ncn1[C@@H]1O[C@H](COP(=O)(O)O)[C@@H](O)[C@H]1O` [Compound 9, N1-Inosine 5′-monophosphate], the IC50 on CD38 [1] is 14 ± 5 µM. For `O=c1c2nc(Br)[nH]c2ncn1[C@@H]1O[C@H](COP(=O)(O)O)[C@@H](O)[C@H]1O` [Compound 10, N1-(5′-O-Phosphoryl-β-D-ribofuranosyl)-8-bromohypoxanthine], at CD38 [1], the IC50 was 201 ± 41 µM.

`Nc1nc2c(=O)n([C@@H]3O[C@H](COP(=O)(O)O)[C@@H](O)[C@H]3O)cnc2[nH]1` [Compound 11, N1-(5′-O-Phosphoryl-β-D-ribofuranosyl)-8-aminohypoxanthine]: the IC50 at CD38 [1] was 7.6 ± 0.2 µM. The “hydrolysis of ligand by shCD38 (RP-HPLC)” value was “hydrolyzed more rapidly than cIDPR (2), but more slowly than 8-NH2-N9-butyl-cIDPR (6); also recorded: hydrolyzed at the N1-ribosyl bond” in data set [2] and “cleaved at high CD38 concentrations” in data set [2] (listed as 8-NH2-N1-IMP). For the molecule `O=c1c2nc(Br)n([C@@H]3O[C@H](CO)[C@@H](O)[C@H]3O)c2ncn1[C@@H]1O[C@H](CO)[C@@H](O)[C@H]1O` [Compound 14, N1-(β-D-Ribofuranosyl)-8-bromoinosine], at CD38 [3], the “inhibitory activity on CD38-mediated cADPR hydrolysis, in words” value (“inhibitory activity … in words” for short) is “no activity” and the “inhibitory activity (IC50) of CD38-mediated cADPR hydrolysis” value (shortened to “inhibitory activity (IC50)”) was “No activity”.

Consider `O=c1c2ncn([C@@H]3O[C@H](CO)[C@@H](O)[C@H]3O)c2ncn1[C@@H]1O[C@H](CO)[C@@H](O)[C@H]1O` [Compound 15, N1-(β-D-Ribofuranosyl)-inosine], for which, on CD38 [3], the “inhibitory activity … in words” value was “low mM inhibitory activity” and the concentration for half-maximal inhibition (IC50) is approximately 7500 µM.

Turning to `[N-]=[N+]=Nc1nc2c(=O)n([C@@H]3O[C@H](CO)[C@@H](O)[C@H]3O)cnc2n1[C@@H]1O[C@H](CO)[C@@H](O)[C@H]1O` [Compound 16, N1-(β-D-ribofuranosyl)-8-azidoinosine], on CD38 [3], the “inhibitory activity … in words” value was “no activity” and the “inhibitory activity (IC50)” value was “No activity”.

With `Nc1nc2c(=O)n([C@@H]3O[C@H](CO)[C@@H](O)[C@H]3O)cnc2n1[C@@H]1O[C@H](CO)[C@@H](O)[C@H]1O` [Compound 17, N1-(β-D-ribofuranosyl)-8-aminoinosine], on CD38 [3], the “inhibitory activity … in words” value is given as “low mM inhibitory activity” and the IC50 was approximately 7600 µM. `O=c1c2nc(Br)n(CCCCO)c2ncn1[C@@H]1O[C@H](CO)[C@@H](O)[C@H]1O` [Compound 18, N1-(β-D-Ribofuranosyl)-N9-(4-hydroxybutyl)-8-bromohypoxanthine]: the “solubility in the assay medium” value in data set [4] is “insoluble in the assay medium”. As to `O=c1c2ncn(CCCCO)c2ncn1[C@@H]1O[C@H](CO)[C@@H](O)[C@H]1O` [Compound 19, N1-(β-D-Ribofuranosyl)-N9-(4-hydroxybutyl)-hypoxanthine], the concentration for half-maximal inhibition (IC50) on CD38 [3] is approximately 2300 µM. For `[N-]=[N+]=Nc1nc2c(=O)n([C@@H]3O[C@H](CO)[C@@H](O)[C@H]3O)cnc2n1CCCCO` [Compound 20, N1-(β-D-Ribofuranosyl)-N9-(4-hydroxybutyl)-8-azidohypoxanthine], the IC50 on CD38 [3] is approximately 9500 µM. Same read-out and setting: under `Nc1nc2c(=O)n([C@@H]3O[C@H](CO)[C@@H](O)[C@H]3O)cnc2n1CCCCO` [Compound 21, N1-(β-D-Ribofuranosyl)-N9-(4-hydroxybutyl)-8-aminohypoxanthine] stands approximately 3300 µM.

For the molecule `O=c1c2ncn(CCCCO)c2ncn1[C@@H]1O[C@H](COP(=O)(O)O)[C@@H](O)[C@H]1O` [Compound 23, N1-(5′-O-Phosphoryl-β-D-ribofuranosyl)-N9-(4-hydroxybutyl)hypoxanthine], the concentration for half-maximal inhibition (IC50) on CD38 [3] worked out at 757 µM. On the same count and under the same terms, then `[N-]=[N+]=Nc1nc2c(=O)n([C@@H]3O[C@H](COP(=O)(O)O)[C@@H](O)[C@H]3O)cnc2n1CCCCO` [Compound 24, N1-(5′-O-Phosphoryl-β-D-ribofuranosyl)-N9-(4-hydroxybutyl)-8-azidohypoxanthine], with 201 µM; and `Nc1nc2c(=O)n([C@@H]3O[C@H](COP(=O)(O)O)[C@@H](O)[C@H]3O)cnc2n1CCCCO` [Compound 25, N1-(5′-O-Phosphoryl-β-D-ribofuranosyl)-N9-(4-hydroxybutyl)-8-aminohypoxanthine], with 332 µM.

For `O=c1c2nc(Br)[nH]c2ncn1[C@H]1O[C@@H](COP(=O)(O)O)[C@H](O)[C@@H]1O` [Compound 26, N1-(5′-O-Phosphoryl-β-L-ribofuranosyl)-8-bromohypoxanthine], the half-maximal inhibitory concentration (IC50) on CD38 [3] turned out to be 230 ± 9 µM. As for `O=c1c2nc[nH]c2ncn1[C@H]1O[C@@H](COP(=O)(O)O)[C@H](O)[C@@H]1O` [Compound 27, N1-(5′-O-Phosphoryl-β-L-ribofuranosyl)-hypoxanthine], the IC50 on CD38 [3] was found to be 460 µM. In addition, the “fold reduction in activity compared to parent / D-ribose N1-IMP counterpart” value on CD38 [3] (ratio of IC50 values) amounted to 30 fold. For `NS(=O)(=O)OC[C@H]1O[C@@H](n2cnc3[nH]c(Cl)nc3c2=O)[C@H](O)[C@@H]1O` [Compound 28, N1-(5′-O-sulfonamide-β-D-ribofuranosyl)-8-chlorohypoxanthine], on CD38 [3], the “inhibitory activity … in words” value is “neither of the two analogues (28, 29) showed any activity” and the “inhibitory activity (IC50)” value is “No activity”.

Regarding `NS(=O)(=O)OC[C@H]1O[C@@H](n2cnc3[nH]cnc3c2=O)[C@H](O)[C@@H]1O` [Compound 29, N1-(5′-O-sulfonamide-β-D-ribofuranosyl)-hypoxanthine], at CD38 [3], the “inhibitory activity … in words” value is “neither of the two analogues (28, 29) showed any activity” and the “inhibitory activity (IC50)” value is given as “No activity”.
